In patent US12037419B2 (The Feinstein Institutes for Medical Research, priority 2016, dated 2024):

Experiments:
[1] = test system: human monocytes; test: Internalization of FITC-labeled HMGB1 or CpG by monocytes (immunofluorescence microscopy); format: cell-based
Experimental: Immunofluorescence Microscopy: In situ proximal ligation assay was performed according to manufacturer's protocol (Duolink, Sigma). Following stimulation, human monocytes were washed three times with ice-cold PBS and were fixed with 4% (wt/vol) PFA for 1 hour at room temperature, seeded (2×10^5 cells) on slides using cytospin (Shandon), permeablized with chilled MeOH for 4 min and with PBS/0.1% (vol/vol) Triton X-100 and blocked for 1 h at room temperature. Cells were then incubated overnight with a primary antibody pair directed to rabbit anti-RAGE (ab3611, Abcam) and to mouse anti-LAIR-1 (BD Bioscience), respectively. The cells were incubated with corresponding PLA probes conjugated to oligonucleotides (mouse MINUS and rabbit PLUS), then followed by ligation and rolling circle amplification in close proximity. Images were acquired using AxioVision software and a confocal microscope (Olympus). Quantification was performed using Zen2 (Zeiss). […] Cells were washed three times with cold-PBS and fixed with 4% PFA and stained with PECy5-anti-human CD14 antibody (BD biosciences) or propidium iodide (PI). […] PI or DAPI was used for nuclear staining. […] After washing, cells were stained with Alexa Fluor 594 anti-rabbit IgG (Life Technologies), and mounted DAPI-containing medium. […]

[2] = test system: RAGE, LAIR-1, SHP-1, NF-κB signaling pathway; test: Immunoprecipitation, Western blot, phospho-immunoreceptor array and p65 nuclear translocation in monocytes; format: cell-based, human
Experimental: Immunofluorescence Microscopy: In situ proximal ligation assay was performed according to manufacturer's protocol (Duolink, Sigma). Following stimulation, human monocytes were washed three times with ice-cold PBS and were fixed with 4% (wt/vol) PFA for 1 hour at room temperature, seeded (2×10^5 cells) on slides using cytospin (Shandon), permeablized with chilled MeOH for 4 min and with PBS/0.1% (vol/vol) Triton X-100 and blocked for 1 h at room temperature. Cells were then incubated overnight with a primary antibody pair directed to rabbit anti-RAGE (ab3611, Abcam) and to mouse anti-LAIR-1 (BD Bioscience), respectively. The cells were incubated with corresponding PLA probes conjugated to oligonucleotides (mouse MINUS and rabbit PLUS), then followed by ligation and rolling circle amplification in close proximity. Images were acquired using AxioVision software and a confocal microscope (Olympus). Quantification was performed using Zen2 (Zeiss). […] Cells were washed three times with cold-PBS and fixed with 4% PFA and stained with PECy5-anti-human CD14 antibody (BD biosciences) or propidium iodide (PI). […] PI or DAPI was used for nuclear staining. […] After washing, cells were stained with Alexa Fluor 594 anti-rabbit IgG (Life Technologies), and mounted DAPI-containing medium. Images were acquired using an AxioImage Z1 (Zeiss) apotome enabled (Zeiss) Fluorescent-intensity analysis of the images was performed using Zen2 (Zeiss).
Immunoprecipitation and Western blot. Total protein extracts were prepared as described (22). Monocytes (2-5×10^6 cells/ml) were washed in ice-cold PBS and lysed in 1×RIPA buffer containing complete protease inhibitor mixture (Roche) and phosphatase inhibitor (Pierce) for 1 h on ice. For immunoprecipitation, anti-LAIR-1 antibody (BD Bioscience) or anti-RAGE antibody (Abcam) was incubated with the lysate overnight at 4° C. prior to being incubated with protein G-dynabeads (Life Technologies). Proteins were then separated by SDS-PAGE, transferred to nitrocellulose or PVDF membranes, and immunoblotted with appropriate antibodies. Bands were detected using the ECL reagent (Thermo Scientific) or using the Odyssey Infrared Imaging system (LI-COR) to detect secondary antibodies conjugated with Infrared 680 or 800.
Phospho-immunoreceptor array: Tyrosine phosphorylated LAIR-1 was determined by human phosphoimmunoreceptor array (Proteome Profiler Array; R&D systems) according to the manufacturer's protocol and as described (22). Phosphorylation levels of individual analytes were determined by average pixel density of duplicate spots; values were obtained after subtraction of background and were normalized to positive control spots.

[3] = test system: human monocytes; test: Monocyte to DC differentiation with GM-CSF and IL-4 (flow cytometry); format: cell-based; settings: compared with C1q alone
[4] = target: T1, RAGE and LAIR-1 (Homo sapiens, UniProt Q15109+Q6GTX8); test: Proximity ligation assay (PLA) for colocalization of RAGE and LAIR-1 on monocytes; format: cell-based
T1 construct: endogenous in cells; host or cells: primary human monocytes from blood of healthy donors
Experimental: Cells were then incubated overnight with a primary antibody pair directed to rabbit anti-RAGE (ab3611, Abcam) and to mouse anti-LAIR-1 (BD Bioscience), respectively. The cells were incubated with corresponding PLA probes conjugated to oligonucleotides (mouse MINUS and rabbit PLUS), then followed by ligation and rolling circle amplification in close proximity. Images were acquired using an AxioImage Z1 (Zeiss) apotome enabled (Zeiss) Fluorescent-intensity analysis of the images was performed using Zen2 (Zeiss).
Immunofluorescence Microscopy: In situ proximal ligation assay was performed according to manufacturer's protocol (Duolink, Sigma). Following stimulation, human monocytes were washed three times with ice-cold PBS and were fixed with 4% (wt/vol) PFA for 1 hour at room temperature, seeded (2×10^5 cells) on slides using cytospin (Shandon), permeablized with chilled MeOH for 4 min and with PBS/0.1% (vol/vol) Triton X-100 and blocked for 1 h at room temperature. Cells were then incubated overnight with a primary antibody pair directed to rabbit anti-RAGE (ab3611, Abcam) and to mouse anti-LAIR-1 (BD Bioscience), respectively. The cells were incubated with corresponding PLA probes conjugated to oligonucleotides (mouse MINUS and rabbit PLUS), then followed by ligation and rolling circle amplification in close proximity. […] Quantification was performed using Zen2 (Zeiss). […]

[5] = test system: human monocytes; test: CpG- or LPS-induced cytokine transcription in monocytes; format: cell-based
Experimental: Monocyte isolation and stimulation: Human PBMCs were obtained following institutional guidelines of the Feinstein Institute for Medical Research (Feinstein) and isolated from blood of healthy donors by density centrifugation (New York Blood Bank). Monocytes were negatively enriched using a human monocyte enrichment kit (Stem Cell Technology). Purity of monocytes (≥90% CD11b+CD14+LAIR-1+) was determined by flow cytometry. […] Splenic murine monocytes from wild type mice, RAGE deficient or LAIR-1 conditional knockout mice were isolated using EasySep mouse monocyte enrichment kit (Stem Cell Technology). C57BL/6 mice, Lysozyme2-Cre transgenic mice were purchased from Jackson Laboratory. Myeloid specific LAIR-1 conditional knockout mice (Lysozyme2-Cre×LAIR fl/fl) were bred and maintained in our facility (Feinstein) under specific pathogen-free conditions. RAGE deficient mice (Department of Medicine, Karolinska Institute Stockholm, Sweden) were maintained at Feinstein. Eight-to ten weeks old male mice were used for experiments. […]
RT-PCR analysis and primers: Total RNA was extracted from cells (1-2×10^6 cells per sample) with an RNeasy kit (Qiagen, Venlo, Limburg, Netherlands) and cDNA was generated using an iScript cDNA synthesis kit (Bio-Rad laboratories). […] The relative induction was calculated by 2-ΔΔCt.

[6] = test system: splenic monocytes of C57BL/6 wild type, RAGE deficient or LAIR-1 deficient mice; test: HMGB1-induced gene transcription in murine splenic monocytes (wild type, RAGE deficient, LAIR-1 deficient); format: cell-based, mouse
Experimental: Monocyte isolation and stimulation: Human PBMCs were obtained following institutional guidelines of the Feinstein Institute for Medical Research (Feinstein) and isolated from blood of healthy donors by density centrifugation (New York Blood Bank). Monocytes were negatively enriched using a human monocyte enrichment kit (Stem Cell Technology). Purity of monocytes (≥90% CD11b+CD14+LAIR-1+) was determined by flow cytometry. […] Splenic murine monocytes from wild type mice, RAGE deficient or LAIR-1 conditional knockout mice were isolated using EasySep mouse monocyte enrichment kit (Stem Cell Technology). C57BL/6 mice, Lysozyme2-Cre transgenic mice were purchased from Jackson Laboratory. Myeloid specific LAIR-1 conditional knockout mice (Lysozyme2-Cre×LAIR fl/fl) were bred and maintained in our facility (Feinstein) under specific pathogen-free conditions. RAGE deficient mice (Department of Medicine, Karolinska Institute Stockholm, Sweden) were maintained at Feinstein. Eight-to ten weeks old male mice were used for experiments. All animal procedures were approved by the Feinstein Institutional Animal Care and Use Committee.
RT-PCR analysis and primers: Total RNA was extracted from cells (1-2×10^6 cells per sample) with an RNeasy kit (Qiagen, Venlo, Limburg, Netherlands) and cDNA was generated using an iScript cDNA synthesis kit (Bio-Rad laboratories). Real Time-PCR was performed on a Light Cycler 480 II (Roche) using Light Cycler 480 master mix with primers (Applied Biosystems) for IFNα1 (Hs00256882), IFNα7 (mm02525960), MX1 (Hs00182073, mm01217998), IL-6 (Hs00985639, mm99999064), TNFα (Hs00174128, mm00443258), IL-12a (Hs00168405), Mer (Hs01031973), PDL-1 (Hs01125301), IL-10 (Hs00961622), CD163 (Hs00174705), HPRT1 (Hs99999909, mm01545399) and Polr2a (Hs00172187). The genes of interest were normalized to the expression of house keeping genes and were compared to a control condition with no treatment. The relative induction was calculated by 2-ΔΔCt.

[7] = target: T2, sRAGE-C1q-HMGB1 complex; test: RAGE-C1q-HMGB1 trimolecular complex formation (SPR and C1q-coated beads); format: binding, human; settings: sRAGE immobilized, C1q 200 nM, HMGB1 500 nM, either order
T2 construct: soluble RAGE (sRAGE) was immobilized on the sensor chip; C1q purified from pooled normal human sera; purchased R&D Systems (hrRAGE); Complement Technology (C1q)
Experimental: The dissociation time was set for 1 minute.
Trimolecular complex assay: Biotinylated-C1q (20 μg/ml) was precoated to SpeedBeads™ (Streptavidin-conjugated microbeads, Thermo Scientific). Beads were saturated with HMGB1, then incubated with RAGE.

[8] = HMGB1 3 μg/ml, C1q 25 μg/ml, 6 h

T1 sequence (Q15109 23-404): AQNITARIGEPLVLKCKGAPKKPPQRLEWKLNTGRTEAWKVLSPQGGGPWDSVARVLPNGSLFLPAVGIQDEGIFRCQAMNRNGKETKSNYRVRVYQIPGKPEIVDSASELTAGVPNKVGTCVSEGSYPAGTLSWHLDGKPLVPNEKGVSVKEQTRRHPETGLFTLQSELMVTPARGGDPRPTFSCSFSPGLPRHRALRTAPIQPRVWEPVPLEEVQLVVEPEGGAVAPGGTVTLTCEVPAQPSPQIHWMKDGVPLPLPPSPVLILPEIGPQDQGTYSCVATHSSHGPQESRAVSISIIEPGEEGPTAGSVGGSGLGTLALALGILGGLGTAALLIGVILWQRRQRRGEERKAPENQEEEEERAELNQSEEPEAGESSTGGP
T1 sequence (Q6GTX8 22-287): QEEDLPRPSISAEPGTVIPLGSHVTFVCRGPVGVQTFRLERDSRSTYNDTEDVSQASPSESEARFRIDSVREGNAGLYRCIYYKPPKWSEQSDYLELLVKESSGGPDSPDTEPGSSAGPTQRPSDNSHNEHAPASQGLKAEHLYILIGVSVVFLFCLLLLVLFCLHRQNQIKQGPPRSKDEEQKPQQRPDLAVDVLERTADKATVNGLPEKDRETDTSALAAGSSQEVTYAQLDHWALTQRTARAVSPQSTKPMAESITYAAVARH
T2 sequence (Q15109 23-342 limits assumed): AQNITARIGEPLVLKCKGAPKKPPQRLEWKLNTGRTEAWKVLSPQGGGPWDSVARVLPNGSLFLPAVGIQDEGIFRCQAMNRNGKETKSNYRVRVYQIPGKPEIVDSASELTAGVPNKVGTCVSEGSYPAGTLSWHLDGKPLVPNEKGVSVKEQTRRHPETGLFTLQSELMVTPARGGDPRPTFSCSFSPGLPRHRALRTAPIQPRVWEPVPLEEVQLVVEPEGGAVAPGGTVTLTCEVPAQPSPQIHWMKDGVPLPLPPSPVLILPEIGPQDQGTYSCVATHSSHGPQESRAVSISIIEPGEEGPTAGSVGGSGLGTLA
T2 sequence (P09429 whole entry, further chain): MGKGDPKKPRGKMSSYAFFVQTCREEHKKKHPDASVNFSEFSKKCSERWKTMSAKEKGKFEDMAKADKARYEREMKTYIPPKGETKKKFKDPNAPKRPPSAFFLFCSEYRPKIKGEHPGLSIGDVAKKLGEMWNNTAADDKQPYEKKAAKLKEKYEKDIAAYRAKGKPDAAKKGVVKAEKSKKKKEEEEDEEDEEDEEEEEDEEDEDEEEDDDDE
T2 sequence (P02745 23-245, further chain): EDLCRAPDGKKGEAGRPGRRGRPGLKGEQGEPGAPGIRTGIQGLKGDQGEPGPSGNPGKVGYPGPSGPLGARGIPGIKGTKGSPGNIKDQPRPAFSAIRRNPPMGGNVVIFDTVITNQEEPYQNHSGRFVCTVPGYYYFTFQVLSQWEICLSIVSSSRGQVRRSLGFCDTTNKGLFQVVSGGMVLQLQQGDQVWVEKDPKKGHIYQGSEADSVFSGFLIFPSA
T2 sequence (P02746 28-253, further chain): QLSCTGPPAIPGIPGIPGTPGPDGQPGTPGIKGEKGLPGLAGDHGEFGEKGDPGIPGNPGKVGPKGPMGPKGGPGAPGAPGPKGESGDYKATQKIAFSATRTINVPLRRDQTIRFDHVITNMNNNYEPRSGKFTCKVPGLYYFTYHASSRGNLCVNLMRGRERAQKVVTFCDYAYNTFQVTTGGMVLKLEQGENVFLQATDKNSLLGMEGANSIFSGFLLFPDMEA
T2 sequence (P02747 29-245, further chain): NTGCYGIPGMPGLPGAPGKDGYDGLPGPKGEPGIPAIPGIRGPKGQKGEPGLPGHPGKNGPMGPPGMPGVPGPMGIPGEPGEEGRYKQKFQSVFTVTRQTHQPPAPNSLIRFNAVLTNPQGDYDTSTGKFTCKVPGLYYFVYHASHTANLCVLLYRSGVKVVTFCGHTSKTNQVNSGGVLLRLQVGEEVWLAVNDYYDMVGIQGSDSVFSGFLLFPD

C1q: C1q purified from pooled normal human sera, obtained from Complement Technology
internalization of FITC-labeled CpG oligonucleotides ([1]; 15 min): significantly reduced cellular internalization
cytosolic FITC-HMGB1 (internalization) ([1]; FITC-HMGB1 3 μg/ml, C1q 25 μg ml-1, 15 min, 37° C.): significantly decreased
phosphorylation of LAIR-1 [2]: induces phosphorylation of LAIR-1
HMGB1-induced activation and nuclear translocation of NF-κB ([2]; P-IKKα, p65, 1 h): inhibited the downstream activation and nuclear translocation of NF-κB
recruitment of SHP-1 to LAIR-1 ([2]; both HMGB1 and C1q present): more SHP-1 is recruited to LAIR-1
HMGB1-induced phosphorylation of RAGE ([2]; in the presence of C1q): diminished
expression of CD14 and LAIR-1 after GM-CSF and IL-4, pre-exposure to both HMGB1 and C1q [3]: significantly higher
RAGE-LAIR-1 colocalization (PLA fluorescence) ([4]; C1q with or without HMGB1): only detected in the presence of C1q
RAGE-LAIR-1 cross-linking with C1q co-incubated with LAIR-2 ([4]; data not shown): negated the cross-linking of RAGE and LAIR-1
CpG-mediated induction of pro-inflammatory cytokines and IFN inducible genes ([5]; CpG 2216): inhibits CpG-mediated induction of pro-inflammatory cytokines
LPS-induced cytokine transcription ([5]; LPS): no effect on LPS-induced cytokine transcription
HMGB1-induced gene transcription in RAGE-deficient cells [6, 8]: no change in HMGB1-induced gene transcription
HMGB1-induced proinflammatory cytokine gene transcription in wild type cells [6, 8]: reduction in HMGB1-induced proinflammatory cytokine gene transcription
HMGB1-induced mRNA expression in LAIR-1 deficient monocytes ([6]; Lysozyme-Cre x floxed LAIR-1 mice): no inhibitory effect
trimolecular complex formation with HMGB1 and sRAGE [7]: formed a trimolecular complex
